Where two headings read alike, the source gives them in different places.
Tests used:
[1] = tested on: HIV-1IIIB; experiment: Direct antiviral activity: MT4-LTR-EGFP cells infected with HIV-1IIIB, EGFP fluorescence; format: cell-based; details: read-out: Inhibition of HIV replication in vitro EC50
Description: After 3 days of incubation, infected cells were quantified by determination of total EGFP fluorescence per well based on microscopy and subsequent image analysis. Threshold values were determined from the average pixel value plus 6 standard deviations from the uninfected control wells, and the median threshold from all control wells on a plate was defined as baseline GFP expression. Intensity values for the sample wells were then determined by subtracting the background threshold from each pixel value obtained from the image of the respective well and calculating the sum of net pixel intensities. Percent inhibition was calculated as 100 * (1 - (Sample - CC)/(VC - CC)).

[2] = tested on: intracellular Gag processing by HIV PR; format: cell-based, HIV-1; details: for Enhancement of alpha complementation: 0.03 to 10 μM NNRTI, result in words
Description: In previous studies, high concentrations of NNRTI (5 μM) were required to observe NNRTI mediated activation of intracellular HIV PR activity. […]. Towards this end, we developed a biochemical assay for gel independent quantitation of intracellular Gag processing by HIV PR in the context of a virus producing cell. We had previously shown that additional protein domains, consisting of small epitope tags or even the 27 kDa green fluorescent protein (EGFP), can be inserted between the MA and CA domains of the Gag and Gag-Pol polyproteins without affecting polyprotein production or processing by HIV PR [36]. Based on this, we designed a HIV reporter construct which contained a small N-terminal fragment ('alpha peptide') of Escherichia coli beta-galactosidase (β-Gal), flanked by two HIV PR recognition sites, between the MA and CA coding sequences of Gag (Figure 1A). […] This so called alpha complementation principle can be exploited for use in mammalian cells and has been employed for the establishment of various cell based biochemical assay systems. We reasoned that embedding of the small alpha peptide within the multi-domain polyproteins Gag or Gag-Pol, respectively, should impair its productive association with the omega subunit, while proteolytic release of the alpha peptide from the polyprotein by PR would allow the formation of enzymatically active β-Gal. This should allow us to monitor intracellular Gag and Gag-Pol processing through increased β-Gal activity.
Reconstituted β-Gal activity in cell lysates was measured by cleavage of the chromogenic substrate CPRG [42] as described in Methods.
The activity of β-Gal in cell lysates from transfected 293T cells was measured by enzymatic cleavage of the chromogenic β-Gal substrate chlorphenolred-β-D-galactopyranoside (CPRG, Roche; [42]). At 44 h post transfection, cells were briefly rinsed with PBS and suspended in reporter gene assay lysis buffer (Roche, 600 μl per 6-well dish) supplemented with a protease inhibitor mix (Roche). Cell suspensions were incubated for 10 min at room temperature and cell debris was subsequently removed by brief centrifugation. Five μl of supernatant were diluted in 96-well plates with 95 μl CPRG reaction buffer (50 mM potassium phosphate, pH 7.5, 1 mM MgCl2) and pre-warmed for 5 min to 37°C. 100 μl of pre-warmed reaction mix (100 μM CPRG in CPRG reaction buffer supplemented with protease inhibitor cocktail and 40 μM β-mercaptoethanol) were added and β-Gal mediated cleavage of CPRG was monitored by recording absorption at 592 nm every 2 min for 20 min at 37°C using a TECAN Safire multi-well reader. OD592 values were plotted over time and relative reaction rates (OD592/min) were determined from the initial linear velocities.

[3] = tested on: MT4-CMV-EGFP control cells; experiment: Cytotoxicity on uninfected control cells, EGFP fluorescence per well; format: cell-based
Description: (§1) The cytotoxicity of inhibitors was determined in parallel on MT4-CMV-EGFP control cells and on MT4-LTR-EGFP-IIIB virus producing cells, respectively.

[4] = tested on: MT4-LTR-EGFP-IIIB HIV-1 producing cells; experiment: in vitro; format: cell-based; details: for CC50: 4 days; for Cytotoxicity on MT4-LTR-EGFP-IIIB cells, in words: summary of Table 1
Description: as §1

[5] = biological target: T1, RT heterodimer (p66/p51) (Human immunodeficiency virus type 1 group M subtype B, UniProt P04585); experiment: cell-based; format: cell-based, HIV-1; details: for Promotion of RT dimerization, in words: summary of Table 1
T1 construct: the bait protein (p66) was fused to the C-terminus of a chimeric receptor; expressed in transfected cells; host or cells: mammalian cells
Description: RT heterodimer formation was monitored using a mammalian two hybrid system described previously. In brief, the bait protein (p66) was fused to the C-terminus of a chimeric receptor consisting of the extracellular part of the erythropoietin receptor and the intracellular part of the leptin receptor incapable of STAT activation. The prey protein (p51) was coupled to a part of the cytoplasmic tail of the gp130 chain carrying several STAT3 recruitment domains. Interaction of bait and prey protein leads to functional complementation of STAT3 activity, which results in Epo dependent induction of a STAT3-responsive luciferase reporter gene. Enhancement of this interaction by the addition of compounds can thus be measured by an increase of luciferase expression.

[6] = Cytotoxicity on uninfected control cells, EGFP fluorescence per well; format: cell-based; details: human
Description: as §1

[7] = in vitro; format: cell-based; details: human, 4 days, no DRV; mean ± SD; tested up to 10 μM; read-out: Cytotoxicity on MT4-LTR-EGFP-IIIB HIV-1 producing cells CC50
Description: as §1

[8] = tested on: 293T cells; experiment: Microscopically detectable impairment of cell growth of transfected 293T cells; format: cell-based; details: high NNRTI concentrations (5 μM and above)
Description: At 44 h post transfection, cell lysates were analyzed for β-Gal activity.

[9] = tested on: intracellular HIV PR activity; design: method as in PMID 17096588; details: 5 μM NNRTI; cited from earlier work
[10] = biological target: omega fragment of beta-galactosidase (inactive fragment lacking amino acids 11-41), encoded by pCMVω (Escherichia coli)
[11] = tested on: Gag processing in MT-4-IIIB cells; experiment: Immunoblot of Gag processing in chronically infected MT-4 cells; format: cell-based, HIV-1
[12] = tested on: HIV-1AGFP infected PBMC; experiment: Killing of HIV-1 infected PBMC, proportion of GFP expressing cells by flow cytometry; format: cell-based, human; details: 1 μM NNRTI, added day 2 post infection with AMD-3100, 5 days
Description: PBMC isolated from healthy blood donors were activated and infected with a replication competent HIV-1 derivative which carries a gfp gene in the nef locus [49]. The co-receptor antagonist AMD-3100 was added at day 2 post infection to prevent further viral spread.

[13] = tested on: HXB2D-EGFP infected CD4 positive cells isolated from PBMC; experiment: Killing of HIV-1 infected CD4 positive primary T-cells, flow cytometry; format: cell-based, human
Description: To validate our results obtained for the persistently infected cell line in a more relevant cell system we performed additional infection experiments using human peripheral blood mononuclear cells (PBMC). […]. PBMC isolated from healthy blood donors were activated and infected with a replication competent HIV-1 derivative which carries a gfp gene in the nef locus. The co-receptor antagonist AMD-3100 was added at day 2 post infection to prevent further viral spread. This was done to distinguish the proposed killing of infected cells from the inhibitory effect of NNRTIs and PIs on virus replication. […]. […] Similar results were obtained upon infection of CD4-positive primary T-cells with an EGFP-expressing virus (Figure 4B).
Figure 4 NNRTI induced selective killing of HIV-1 infected primary human cells. (A) PBMC prepared from buffy coats of healthy blood donors were infected with HIV-1AGFP. At day 2 post infection, 100 ng/ml AMD-3100 was added to all samples to prevent further infection. […] After further incubation for 5 days, cells were harvested and analyzed for the proportion of infected GFP expressing cells by flow cytometry. […] P-values were calculated using a two-tailed unpaired t-test (GraphPad Prism). Values were normalized to the respective solvent control. (B) CD4 positive cells isolated from PBMC were infected with HXB2D-EGFP. […] After further incubation for 3 days, cells were harvested and analyzed for the proportion of infected cells by flow cytometry. […] Asterisks: non-infected controls.
Peripheral blood mononuclear cells (PBMC) were purified from buffy coats of HIV-negative blood donors, grown in supplemented RPMI 1640 and stimulated by the addition of 10 ng/ml IL-2 (Biomol) and 2 μg/ml PHA (Sigma). PBMC pooled from two donors each were used for infection. […] For infection of PBMC, the HIV-1 derivatives HIV-1-AGFP [49] carrying the gfp gene fused to the codon for amino acid 16 of Nef in pNL4-3, or HXB2D-EGFP [60], which carries an egfp gene in the place of the viral nef open reading frame, were used as indicated. […]

[14] = MT4-LTR-EGFP cells, HIV-1IIIB MOI 0.01, 3 days, mean ± SD of three or more measurements
[15] = 293T cells, 44 h post transfection
[16] = no DRV, mean ± SD, tested up to 10 μM, read-out: Cytotoxicity on MT4-LTR-EGFP-IIIB HIV-1 producing cells CC50
[17] = concentration enhancing luciferase signal by 50% over control, read-out: Enhancement of RT-Dimerization EC50
[18] = Human immunodeficiency virus 1, 72 h, MT4-LTR-EGFP cells, HIV-1IIIB MOI 0.01, 3 days, mean ± SD of three or more measurements
[19] = MT4-CMV-EGFP control cells (uninfected), 4 days, mean ± SD, tested up to 10 μM, read-out: Cytotoxicity on MT4-CMV-EGFP control cells CC50

COP(=O)(c1cc(C)cc(/C=C/C#N)c1)c1c(C(N)=O)[nH]c2ccc(Cl)cc12 (centres unmarked) [IDX-12899]
EC50 [1, 14]: 1.9 ± 1.3 nM
Concentration showing strong β-Gal activity enhancement [2, 15]: ~ 250 nM
CC50 [3]: > 10000 nM
CC50 [4, 16]: 290 ± 210 nM
Cytotoxicity on MT4-LTR-EGFP-IIIB cells, in words [4]: submicromolar range
EC50 [5, 17]: 4.6 nM
Promotion of RT dimerization, in words [5]: low nM range

Cc1cc(C)c(Nc2ccnc(Nc3ccc(C#N)cc3)n2)c(C)c1 [TMC-120]
EC50 [1, 18]: 1.7 ± 1.4 nM
Enhancement of alpha complementation [2]: little or no enhancement
CC50 at 4 days [6, 19]: 3020 ± 900 nM
Cytotoxicity on uninfected MT4-CMV-EGFP control cells, in words ([3]; text summary of Table 1, tested range up to 10 μM): comparable toxicity
CC50 at 4 days [7]: 2560 ± 740 nM
Cytotoxicity on MT4-LTR-EGFP-IIIB cells, in words [4]: displayed toxicity
Impairment of cell growth with decrease in β-Gal activity indicative of cytotoxic effects [8]: most pronounced
Stimulation of Gag or Gag-Pol processing [9]: stimulation of Gag processing

alpha peptide of Escherichia coli beta-galactosidase (amino acids 1-51), released from Gagα by HIV-1 (from UniProt P00722 1-51)
β-Gal activity (relative rate of CPRG cleavage) in lysates of 293T cells co-transfected with pCMVω and pCHIV.MAα, DMSO control [10]: 0.109 min^-1

CCc1nn(CCO)c(CC)c1Oc1cc(C#N)cc(C#N)c1 [UK-453061]
EC50 ([1]; Human immunodeficiency virus 1, 72 h): 7.5 ± 1.4 nM
Enhancement of alpha complementation [2]: little or no enhancement
CC50 at 4 days [6]: > 10000 nM
EC50 [5]: 150 nM

CC(C)Nc1cccnc1N1CCN(C(=O)c2cc3cc(NS(C)(=O)=O)ccc3[nH]2)CC1 [DLV, delavirdine]
Stimulation of Gag or Gag-Pol processing [9]: did not stimulate

modified Gagα precursor: HIV-1 Gag polyprotein with the β-Gal alpha peptide inserted between MA and CA (from pCHIV.MAα) (from UniProt P12493;P00722)
β-Gal activity (relative rate of CPRG cleavage) in lysates of 293T cells co-transfected with pCMVω and pCHIV.MAα, grown with 2 μM LPV (Gagα processing nearly completely blocked) [10]: 0.054 min^-1

Cc1cc(C#N)cc(C)c1Oc1nc(Nc2ccc(C#N)cc2)nc(N)c1Br [ETV, etravirine]
EC50 [1, 18]: 3.2 ± 5 nM
Concentration required to achieve the maximal effect on β-Gal activity [2, 15]: ~ 1 μM
CC50 at 4 days [6, 19]: > 10000 nM
EC50 [5]: 270 nM
Impairment of cell growth with decrease in β-Gal activity indicative of cytotoxic effects [8]: most pronounced

Cc1ccnc2c1NC(=O)c1cccnc1N2C1CC1 [NVP, nevirapine]
EC50 [1, 18]: 42 ± 20 nM
Enhancement of alpha complementation [2]: little or no enhancement
CC50 at 4 days [6, 19]: > 10000 nM
Stimulation of Gag or Gag-Pol processing [9]: did not stimulate

Cc1cc(S(N)(=O)=O)ccc1NC(=O)COc1ccc(Cl)cc1C(=O)c1cc(Cl)cc(C#N)c1 [GW-678248]
EC50 [1, 14]: 0.84 ± 0.25 nM
Concentration showing strong β-Gal activity enhancement [2, 15]: ~ 250 nM
CC50 [3]: > 10000 nM
CC50 [4, 16]: 630 ± 290 nM
CC50 ([4]; read-out: CC50 on virus producing cells in the absence of DRV, one representative experiment (Fig. 3C), 4 parameter fit): 350 nM
Cytotoxicity on MT4-LTR-EGFP-IIIB cells, in words [4]: submicromolar range
EC50 [5, 17]: 3.2 nM
Promotion of RT dimerization, in words [5]: low nM range
NNRTI mediated enhancement of Gag processing in virus producing cells ([11]; 1 μM, day 2 post addition): decreased ratio of Gag to intermediate and fully mature processing products
Infected primary cells (PBMC) as compared with the control [12]: significant reduction
Cytotoxicity on infected CD4-positive primary T-cells ([13]; 1 μM NNRTI + 1 μM AZT, 3 days): PR dependent cytotoxicity

CC(C)CN(C[C@@H](O)[C@H](Cc1ccccc1)NC(=O)O[C@H]1CO[C@H]2OCC[C@H]21)S(=O)(=O)c1ccc(N)cc1 [DRV, darunavir]
Gag processing under DRV treatment ([11]; 200 nM DRV): impaired
Effect of DRV on the NNRTI effect in CD4-positive primary T-cells ([13]; 100 nM DRV + 1 μM NNRTI + 1 μM AZT): completely reversed

Source: paper PMC2974656, “Selective killing of human immunodeficiency virus infected cells by non-nucleoside reverse transcriptase inhibitor-induced activation of HIV protease” (Retrovirology, 2010)
